Test [1] deals with GDP-bound KRAS wild-type protein (Homo sapiens, UniProt P01116). Kind of test: Binding to KRAS by surface plasmon resonance (SPR), dissociation constant KD. The settings on record: 1:1 binding model. A digest of the protocol: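 Biotinylated GDP-bound RAS was captured at about 100–300 RU. Running buffer: HBS pH 7.4, 10 mM MgCl2, 10 µM GDP, 1 mM DTT, 0.01% Tween 20, 4% DMSO.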
(In general: SPR reads the build-up and loss of mass on a sensor chip optically.)

Test [2] relates to human lung cancer strain NCI-H441. The test is described as follows: NCI-H441 cell proliferation inhibitory activity (CellTiter-Glo, 4 days). In kind it is cell-based. The settings on record: NCI-H441 cells, 4 days, read-out: NCl-H441 IC50. A digest of the protocol: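 Proliferation was scored by […] measured after the reagent was added to cultures kept at 37°C in 5% carbon dioxide.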
Background: In ATP-based viability assays light output follows the ATP content of the culture.

Test [3] has as its target GDP-bound NRAS wild-type protein (Homo sapiens, UniProt P01111). The test is described as follows: Binding to NRAS by surface plasmon resonance (SPR), KD and KD ratio to KRAS. To be noted: ratio of KD for GDP-bound NRAS wild-type protein to KD for KRAS. The method, boiled down: (§1)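 SPR, 30°C: Avi-biotin RAS·GDP captured via Biotin CAPture (~100–300 RU); running buffer HBS pH 7.4, 1 mM DTT, 10 mM MgCl2, 0.01% Tween 20, 10 µM GDP, 4% DMSO. Single-cycle kinetics, 100 µL/min, 75 s injections; 1:1 model → KD.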

Test [4] has as its target HRAS wild-type protein (Homo sapiens, UniProt P01112). Kind of test: Binding to HRAS by surface plasmon resonance (SPR), KD and KD ratio to KRAS. The settings on record: ratio of KD for HRAS wild-type protein to KD for KRAS. A digest of the protocol:
as §1

Structures are written as SMILES.

HRAS wild-type protein, sequence (P01112 whole entry): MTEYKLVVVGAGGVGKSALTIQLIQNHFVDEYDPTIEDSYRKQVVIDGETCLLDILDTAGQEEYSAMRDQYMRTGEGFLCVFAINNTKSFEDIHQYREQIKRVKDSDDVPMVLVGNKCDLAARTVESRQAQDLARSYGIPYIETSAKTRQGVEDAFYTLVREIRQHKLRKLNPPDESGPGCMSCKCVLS
GDP-bound NRAS wild-type protein, sequence (P01111 whole entry): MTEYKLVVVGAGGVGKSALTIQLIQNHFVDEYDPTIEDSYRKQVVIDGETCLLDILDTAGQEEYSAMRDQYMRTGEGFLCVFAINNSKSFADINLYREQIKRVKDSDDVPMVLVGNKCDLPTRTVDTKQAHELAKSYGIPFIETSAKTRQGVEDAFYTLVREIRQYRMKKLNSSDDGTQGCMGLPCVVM
GDP-bound KRAS wild-type protein, sequence (P01116 1-188 isoform P01116-2): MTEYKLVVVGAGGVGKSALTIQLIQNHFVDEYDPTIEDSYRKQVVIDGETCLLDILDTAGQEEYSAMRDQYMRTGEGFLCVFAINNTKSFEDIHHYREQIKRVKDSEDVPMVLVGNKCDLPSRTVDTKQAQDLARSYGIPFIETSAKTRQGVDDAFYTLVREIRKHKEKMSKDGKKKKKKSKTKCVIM

Take `CCOC[C@H]1C(=O)N[C@@H]([C@@H](C)CC)C(=O)N(C)CC(=O)N(C)[C@H]2C/C=C\CCN(C2=O)[C@@H](Cc2ccc(C)cc2)C(=O)N(C)CC(=O)N[C@@H](CCc2ccc(C(F)(F)F)c(Cl)c2)C(=O)N2C[C@@H](C)C[C@H]2C(=O)NC2(CC(C)(C)C2)C(=O)N(C)[C@@H](C2CCCC2)C(=O)N(C)[C@H](C(=O)N(C)C)CC(=O)N1C` [PP2394]: in test [1], binding was put at a Kd of 0.12 nM. In test [2], the IC50 came to 8.3 nM. Besides, the “NRAS /KRAS” value in test [3] is “A (a compound having 10 or more and less than 20 is denoted as A)”. In addition, the “HRAS /KRAS” value in test [4] was “B (a compound having 3 or more and less than 10 is denoted as B)”.

Regarding `CCOC[C@H]1C(=O)N[C@@H]([C@@H](C)CC)C(=O)N(C)CC(=O)N(C)[C@H]2C/C=C\CCN(C2=O)[C@@H](Cc2ccc(C)cc2)C(=O)N(C)CC(=O)N[C@@H](CCc2ccc(C(F)(F)F)c(Cl)c2)C(=O)N2C[C@H](OCC)C[C@H]2C(=O)NC2(CC(C)(C)C2)C(=O)N(C)[C@@H](C2CCCC2)C(=O)N(C)[C@H](C(=O)N(C)C)CC(=O)N1C` [PP2395], the Kd in test [1] came to 0.072 nM. In test [2], the IC50 came out at 6.3 nM. Also, the “NRAS /KRAS” value in test [3] was “A (a compound having 10 or more and less than 20 is denoted as A)”. Besides, the “HRAS /KRAS” value in test [4] was “B (a compound having 3 or more and less than 10 is denoted as B)”.

Turning to `CCO[C@@H]1C[C@H]2C(=O)NC3(CC(C)(C)C3)C(=O)N(C)[C@@H](C3CCCC3)C(=O)N(C)[C@H](C(=O)N(C)CC)CC(=O)N(C)[C@@H](COC)C(=O)N[C@@H]([C@@H](C)CC)C(=O)N(C)CC(=O)N(C)[C@H]3C/C=C\CCN(C3=O)[C@@H](Cc3ccc(C)cc3)C(=O)N(C)CC(=O)N[C@@H](CCc3cc(F)c(C(F)(F)F)c(F)c3)C(=O)N2C1` [PP2396], the equilibrium dissociation constant (Kd) in test [1] was 0.069 nM. Also, the IC50 in test [2] came to 4.1 nM. For the same compound, the “NRAS /KRAS” value in test [3] is “A (a compound having 10 or more and less than 20 is denoted as A)”. Besides, the “HRAS /KRAS” value in test [4] is “A (a compound having 10 or more and less than 20 is denoted as A)”.

For `CCOC[C@H]1C(=O)N[C@@H]([C@@H](C)CC)C(=O)N(C)CC(=O)N(C)[C@H]2C/C=C\CCN(C2=O)[C@@H](Cc2ccc(C)cc2)C(=O)N(C)CC(=O)N[C@@H](CCc2cc(F)c(C(F)(F)F)c(F)c2)C(=O)N2C[C@H](OCC)C[C@H]2C(=O)NC2(CC(C)(C)C2)C(=O)N(C)[C@@H](C2CCCC2)C(=O)N(C)[C@H](C(=O)N(C)C)CC(=O)N1C` [PP2397], the Kd in test [1] was found to be 0.051 nM. Also, the IC50 in test [2] worked out at 4.7 nM. For the same compound, the “NRAS /KRAS” value in test [3] was “A (a compound having 10 or more and less than 20 is denoted as A)”. For the same compound, the “HRAS /KRAS” value in test [4] was “A (a compound having 10 or more and less than 20 is denoted as A)”.

In turn, `CCOC[C@H]1C(=O)N[C@@H]([C@@H](C)CC)C(=O)N(C)CC(=O)N(C)[C@H]2C/C=C\CCN(C2=O)[C@@H](Cc2ccc(C)cc2)C(=O)N(C)CC(=O)N[C@@H](CCc2ccc(C(F)(F)F)c(Cl)c2)C(=O)N2C[C@H](OCC)C[C@H]2C(=O)NC2(CC(C)(C)C2)C(=O)N(C)[C@@H](C2CCCC2)C(=O)N(C)[C@H](C(=O)N(C)CC)CC(=O)N1C` [PP2401] showed a Kd in test [1] of 0.12 nM. For the same compound, in test [2], the IC50 worked out at 5.3 nM. The “NRAS /KRAS” value in test [3] is “A (a compound having 10 or more and less than 20 is denoted as A)”. Moreover, the “HRAS /KRAS” value in test [4] was “A (a compound having 10 or more and less than 20 is denoted as A)”.

In test [1], `CCCOC[C@H]1C(=O)N[C@@H]([C@@H](C)CC)C(=O)N(C)CC(=O)N(C)[C@H]2C/C=C\CCN(C2=O)[C@@H](Cc2ccc(C)cc2)C(=O)N(C)CC(=O)N[C@@H](CCc2ccc(C(F)(F)F)c(Cl)c2)C(=O)N2C[C@H](OCC)C[C@H]2C(=O)NC2(CC(C)(C)C2)C(=O)N(C)[C@@H](C2CCCC2)C(=O)N(C)[C@H](C(=O)N(C)C)CC(=O)N1C` [PP2402] displayed a Kd of 0.092 nM. For the same compound, in test [2], the IC50 was 10.6 nM. In addition, the “NRAS /KRAS” value in test [3] was “A (a compound having 10 or more and less than 20 is denoted as A)”. In addition, the “HRAS /KRAS” value in test [4] is “A (a compound having 10 or more and less than 20 is denoted as A)”.

In test [1], `CCO[C@@H]1C[C@H]2C(=O)NC3(CC(C)(C)C3)C(=O)N(C)[C@@H](C3CCCC3)C(=O)N(C)[C@H](C(=O)N(CC)CC)CC(=O)N(C)[C@@H](COC)C(=O)N[C@@H]([C@@H](C)CC)C(=O)N(C)CC(=O)N(C)[C@H]3C/C=C\CCN(C3=O)[C@@H](Cc3ccc(C)cc3)C(=O)N(C)CC(=O)N[C@@H](CCc3cc(F)c(C(F)(F)F)c(F)c3)C(=O)N2C1` [PP2403] yielded a Kd of 0.22 nM. The IC50 in test [2] worked out at 7.2 nM. The “NRAS /KRAS” value in test [3] was “A (a compound having 10 or more and less than 20 is denoted as A)”. The “HRAS /KRAS” value in test [4] is “A (a compound having 10 or more and less than 20 is denoted as A)”.

For `CCOC[C@H]1C(=O)N[C@@H]([C@@H](C)CC)C(=O)N(C)CC(=O)N(C)[C@H]2C/C=C\CCN(C2=O)[C@@H](Cc2ccc(C)cc2)C(=O)N(C)CC(=O)N[C@@H](CCc2cc(F)c(C(F)(F)F)c(F)c2)C(=O)N2C[C@H](OCC)C[C@H]2C(=O)NC2(CC(C)(C)C2)C(=O)N(C)[C@@H](C2CCCC2)C(=O)N(C)[C@H](C(=O)N(C)CC)CC(=O)N1C` [PP2404], the dissociation constant (Kd) in test [1] was found to be 0.09 nM. Moreover, the IC50 in test [2] stood at 4.1 nM. For the same compound, the “NRAS /KRAS” value in test [3] is “A (a compound having 10 or more and less than 20 is denoted as A)”. Further, in test [4], the “HRAS /KRAS” value is “A (a compound having 10 or more and less than 20 is denoted as A)”.

For the compound `CCOC[C@H]1C(=O)N[C@@H]([C@@H](C)CC)C(=O)N(C)CC(=O)N(C)[C@H]2C/C=C\CCN(C2=O)[C@@H](Cc2ccc(C)cc2)C(=O)N(C)CC(=O)N[C@@H](CCc2ccc(C(F)(F)F)c(OC)c2)C(=O)N2C[C@@H](C)C[C@H]2C(=O)NC2(CC(C)(C)C2)C(=O)N(C)[C@@H](C2CCCC2)C(=O)N(C)[C@H](C(=O)N(CC)CC)CC(=O)N1C` [PP2405], the Kd in test [1] was 0.31 nM. Also, the IC50 in test [2] came to 8.6 nM. In addition, in test [3], the “NRAS /KRAS” value is “A (a compound having 10 or more and less than 20 is denoted as A)”. Moreover, the “HRAS /KRAS” value in test [4] was “A (a compound having 10 or more and less than 20 is denoted as A)”.

`CCOC[C@H]1C(=O)N[C@@H]([C@@H](C)CC)C(=O)N(C)CC(=O)N(C)[C@H]2C/C=C\CCN(C2=O)[C@@H](Cc2ccc(C)cc2)C(=O)N(C)CC(=O)N[C@@H](CCc2ccc(C(F)(F)F)c(OC)c2)C(=O)N2C[C@H](OCC)C[C@H]2C(=O)NC2(CC(C)(C)C2)C(=O)N(C)[C@@H](C2CCCC2)C(=O)N(C)[C@H](C(=O)N(CC)CC)CC(=O)N1C` [PP2406] yielded a Kd in test [1] of 0.29 nM. Besides, in test [2], the IC50 came to 21.3 nM. Also, in test [3], the “NRAS /KRAS” value is “A (a compound having 10 or more and less than 20 is denoted as A)”. For the same compound, the “HRAS /KRAS” value in test [4] is “A (a compound having 10 or more and less than 20 is denoted as A)”.

With `CCOC[C@H]1C(=O)N[C@@H]([C@@H](C)CC)C(=O)N(C)CC(=O)N(C)[C@H]2C/C=C\CCN(C2=O)[C@@H](Cc2ccc(C)cc2)C(=O)N(C)CC(=O)N[C@@H](CCc2cc(F)c(C(F)(F)F)c(F)c2)C(=O)N2C[C@@H](C)C[C@H]2C(=O)NC2(CC(C)(C)C2)C(=O)N(C)[C@@H](C2CCCC2)C(=O)N(C)[C@H](C(=O)N(CC)CC)CC(=O)N1C` [PP2407], the Kd in test [1] worked out at 0.5 nM. For the same compound, in test [2], the IC50 was 60.1 nM. Also, the “NRAS /KRAS” value in test [3] was “A (a compound having 10 or more and less than 20 is denoted as A)”. Moreover, in test [4], the “HRAS /KRAS” value was “A (a compound having 10 or more and less than 20 is denoted as A)”.

The compound `CCOC[C@H]1C(=O)N[C@@H]([C@@H](C)CC)C(=O)N(C)CC(=O)N(C)[C@H]2C/C=C\CCN(C2=O)[C@@H](Cc2ccc(C)cc2)C(=O)N(C)CC(=O)N[C@@H](CCc2cc(F)c(C(F)(F)F)c(F)c2)C(=O)N2C[C@H](OCC)C[C@H]2C(=O)NC2(CC(C)(C)C2)C(=O)N(C)[C@@H](C2CCCC2)C(=O)N(C)[C@H](C(=O)N(CC)CC)CC(=O)N1C` [PP2408] showed a Kd in test [1] of 0.23 nM. Besides, in test [2], the IC50 stood at 21.3 nM. Also, the “NRAS /KRAS” value in test [3] is “A (a compound having 10 or more and less than 20 is denoted as A)”. Also, the “HRAS /KRAS” value in test [4] is “A (a compound having 10 or more and less than 20 is denoted as A)”.

Regarding `CC[C@H](C)[C@@H]1NC(=O)[C@H](CC(C)C)N(C)C(=O)C[C@@H](C(=O)N(C)C)N(C)C(=O)[C@H](C2CCCC2)N(C)C(=O)C2(CC(C)(C)C2)NC(=O)[C@@H]2C[C@H](C)CN2C(=O)[C@H](CCc2ccc(C(F)(F)F)c(OC)c2)NC(=O)CN(C)C(=O)[C@H](Cc2ccc(C)cc2)N2CC/C=C\C[C@@H](C2=O)N(C)C(=O)[C@@H]2CCCN2C1=O` [PP2409], in test [1], binding was put at a Kd of 0.48 nM. Further, the IC50 in test [2] was found to be 31.9 nM. The “NRAS /KRAS” value in test [3] is “A (a compound having 10 or more and less than 20 is denoted as A)”. In test [4], the “HRAS /KRAS” value is “B (a compound having 3 or more and less than 10 is denoted as B)”.

The compound `CCO[C@H](C)[C@@H]1NC(=O)[C@H](CC(C)C)N(C)C(=O)C[C@@H](C(=O)N(C)C)N(C)C(=O)[C@H](C2CCCC2)N(C)C(=O)C2(CC(C)(C)C2)NC(=O)[C@@H]2C[C@H](C)CN2C(=O)[C@H](CCc2ccc(C(F)(F)F)c(OC)c2)NC(=O)CN(C)C(=O)[C@H](Cc2ccc(C)cc2)N2CC/C=C\C[C@@H](C2=O)N(C)C(=O)CN(C)C1=O` [PP2412] yielded a Kd in test [1] of 0.15 nM. In test [2], the IC50 stood at 21 nM. For the same compound, in test [3], the “NRAS /KRAS” value is “A (a compound having 10 or more and less than 20 is denoted as A)”. For the same compound, the “HRAS /KRAS” value in test [4] is “B (a compound having 3 or more and less than 10 is denoted as B)”.

As usually defined, the Kd is the equilibrium constant for the complex coming apart. Read a high Kd as lower affinity. Usually IC50 stands for the point on the concentration scale where inhibition reaches its midpoint.
